Laboratory results: US10668016B2, “Complexes of abiraterone acetate, process for the preparation thereof and pharmaceutical compositions containing them” (NanGenex Nanotechnology Incorporated, priority 2015, dated 2020)
Where two headings read alike, the source gives them in different places.

Tests used:
[1] = cited from earlier work; for compound present in feces, % of the administered dose: oral 14C-abiraterone acetate
[2] = cited from earlier work
P-glycoprotein (P-gp) = P-glycoprotein (P-gp) (Homo sapiens, UniProt P08183); conditions: cited from earlier work
[3] = cited from earlier work; remark: listed apart in the source
[4] = test system: serum testosterone and other androgens; conditions: patients, placebo-controlled phase 3 clinical trial; cited from earlier work
PAMPA permeability = conditions: comparative in-vitro PAMPA assay
Procedure: PAMPA permeability measurements were performed as described by M Kansi et al. (Journal of medicinal chemistry, 41, (1998) pp 1007) with modifications based on S. Bendels et al (Pharmaceutical research, 23 (2006) pp 2525). Permeability was measured in a 96-well plate assay across an artificial membrane composed of dodecane with 20% soy lecithin supported by a PVDF membrane (Millipore, USA). The receiver compartment was phosphate buffered saline (pH 7.0) supplemented with 1% sodium dodecyl sulfate. The assay was performed at room temperature; incubation time was 1-24 hours. The concentration in the receiver compartment was determined by UV-VIS spectrophotometry (Thermo Scientific Genesys S10).

[5] = Apparent solubility in distilled water; type: physicochemical; conditions: distillated water, room temperature, 100 nm filter
Text: The samples were dispersed in distillated water and the resulting dispersions were filtered by 100 nm disposable syringe filter. […] The filtrate may contain Abiraterone acetate complex particles which could not be filtrated out using 100 nm pore size filter.

[6] = test system: human plasma proteins, albumin and alpha-1 acid glycoprotein; conditions: cited from earlier work
[7] = 1,000 mg daily, patients with metastatic CRPC
[8] = high-fat (57% fat, 825 calories) meal
[9] = low-fat meal (7% fat, 300 calories)

Sequence of P-glycoprotein (P-gp) (P08183 whole entry): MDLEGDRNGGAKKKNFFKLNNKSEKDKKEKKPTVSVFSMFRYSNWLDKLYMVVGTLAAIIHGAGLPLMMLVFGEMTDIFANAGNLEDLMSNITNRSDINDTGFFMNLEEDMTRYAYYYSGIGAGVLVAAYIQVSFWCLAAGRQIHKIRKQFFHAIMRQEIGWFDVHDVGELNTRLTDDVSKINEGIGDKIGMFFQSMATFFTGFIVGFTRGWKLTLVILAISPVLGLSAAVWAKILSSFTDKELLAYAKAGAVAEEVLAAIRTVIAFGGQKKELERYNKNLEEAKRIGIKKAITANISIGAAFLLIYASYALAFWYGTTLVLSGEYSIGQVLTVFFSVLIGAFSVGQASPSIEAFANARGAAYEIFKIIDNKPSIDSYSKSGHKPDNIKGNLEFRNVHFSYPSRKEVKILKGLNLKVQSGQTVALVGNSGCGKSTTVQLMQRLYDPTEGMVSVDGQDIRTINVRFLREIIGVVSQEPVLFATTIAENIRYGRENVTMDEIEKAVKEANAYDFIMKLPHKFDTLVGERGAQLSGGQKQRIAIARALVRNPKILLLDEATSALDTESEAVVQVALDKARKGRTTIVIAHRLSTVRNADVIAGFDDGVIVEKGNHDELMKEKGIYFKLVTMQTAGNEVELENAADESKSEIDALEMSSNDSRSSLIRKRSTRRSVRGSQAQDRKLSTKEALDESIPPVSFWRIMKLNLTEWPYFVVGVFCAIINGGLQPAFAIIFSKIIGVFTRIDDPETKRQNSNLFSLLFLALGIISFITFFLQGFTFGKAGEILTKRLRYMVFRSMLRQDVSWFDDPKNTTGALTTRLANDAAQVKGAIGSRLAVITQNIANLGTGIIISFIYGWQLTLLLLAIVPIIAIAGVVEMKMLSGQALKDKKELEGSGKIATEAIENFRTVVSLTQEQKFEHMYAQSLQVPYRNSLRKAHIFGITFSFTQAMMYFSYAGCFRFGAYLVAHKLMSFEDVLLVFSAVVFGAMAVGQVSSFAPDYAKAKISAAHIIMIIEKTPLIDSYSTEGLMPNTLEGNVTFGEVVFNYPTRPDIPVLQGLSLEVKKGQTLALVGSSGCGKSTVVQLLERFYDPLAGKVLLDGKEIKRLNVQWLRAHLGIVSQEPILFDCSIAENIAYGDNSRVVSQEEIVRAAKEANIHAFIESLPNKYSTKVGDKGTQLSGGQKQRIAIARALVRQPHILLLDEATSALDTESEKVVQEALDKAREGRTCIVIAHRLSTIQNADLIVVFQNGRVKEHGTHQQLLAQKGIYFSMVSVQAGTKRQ

In the case of C[C@]12CC[C@H](OS(=O)(=O)O)CC1=CC[C@@H]1[C@@H]2CC[C@]2(C)C(c3ccc[n+]([O-])c3)=CC[C@@H]12 [N-oxide Abiraterone sulphate], the “share of exposure of circulating metabolite in human plasma” value ([1]; oral 14C-abiraterone acetate capsules) is listed as “about 43%”.
In the case of CC(=O)O[C@H]1CC[C@@]2(C)C(=CC[C@@H]3[C@@H]2CC[C@]2(C)C(c4cccnc4)=CC[C@@H]32)C1 [Abiraterone acetate, (3β)-17-(3-pyridinyl) androsta-5,16-dien-3-yl acetate], the Solubility in water [2] is given as “practically insoluble”, the P-gp inhibition (P-glycoprotein (P-gp); not told) is given as “inhibitor” and the P-gp substrate (P-glycoprotein (P-gp); not told) is given as “not substrates”. The “steady-state AUC (mean±SD)” value [3, 7] was 993 ± 639 ng·h/mL, the “steady-state Cmax (mean±SD)” value [3, 7] was 226 ± 178 ng/mL and the “Abiraterone acetate plasma concentrations” value ([3]; below detectable levels in >99% of the analyzed samples) was under 0.2 ng/mL. For the same compound, the “increase in the mean AUC when dose doubled” value ([3]; dose doubled from 1,000 to 2,000 mg) was 8%, the “Abiraterone AUC0-∞ higher with food” value [3, 8] was about 10 fold and the “Abiraterone Cmax higher with food” value [3, 8] was “approximately 17 fold”. The “Abiraterone AUC0-∞ higher with food” value [3, 9] was about 5 fold, the “Abiraterone Cmax higher with food” value [3, 9] was “approximately 7 fold” and the “median time to reach maximum plasma Abiraterone concentrations” value ([3]; oral, patients with metastatic CRPC) was 2 h. For the same compound, the “Abiraterone AUC0-∞ (exposure) increase (positive food effect)” value ([3]; single dose) was at most 10 fold, the “Abiraterone Cmax increase (positive food effect)” value ([3]; single dose) was “up to 17 fold” and the “Abiraterone accumulation: steady-state AUC compared to a single 1,000 mg dose” value ([3]; steady-state) was 2 fold. The “compound present in feces, % of the administered dose” value [1] was “approximately 55%” and the “Effect on serum testosterone and other androgens” value [4] was “decreased”.
With “(3β)-17-(3-pyridinyl) androsta-5,16-dien-3-yl acetate [Abiraterone acetate]” the PAMPA permeability (PAMPA permeability) was “below 0.1*10^−6 cm/s” and the Apparent solubility [5] was under 4 µg/mL.
In the case of C[C@]12CC[C@H](O)CC1=CC[C@@H]1[C@@H]2CC[C@]2(C)C(c3cccnc3)=CC[C@@H]12 [Abiraterone], the P-gp substrate (P-glycoprotein (P-gp); in vitro, clinically relevant concentrations) is given as “not substrates”, the “bound to human plasma proteins” value [6] is given as over 99% and the “compound present in feces, % of the administered dose” value [1] is given as about 22%.
